According to patent US20230151025A1, “SUBSTITUTED THIAZOLOPYRIDINES, SALTS THEREOF AND THEIR USE AS HERBICIDALLY ACTIVE SUBSTANCES” (Bayer Aktiengesellschaft, priority 2020, published 2023):

Key:
Format in all cases: in vivo
Setaria viridis (SETVI) [1] = test: Herbicidal post-emergence action (B), 1280 g/ha; settings: rated visually after about 3 weeks vs untreated controls
Text: (§1) ABUTH: Abutilon theophrasti AGSTE: Agrostis tenuis ALOMY: Alopecurus myosuroides AMARE Amaranthus retroflexus DIGSA: Digitaria sanguinalis ECHCG: Echinochloa crus-galli KCHSC: Kochia scoparia LOLRI: Lolium rigidum MATIN: Matricaria inodora POAAN: Poa annua POLCO: Polygonum convolvulus SETVI: Setaria viridis STEME: Stellaria media VERPE: Veronica persica VIOTR: Viola tricolor
(§2) Seeds of mono- and dicotyledonous weed plants were placed in plastic pots in sandy loam soil (doubly sown with in each case one species of mono- or dicotyledonous weed plants per pot), covered with soil and cultivated in a greenhouse under controlled growth conditions. 2 to 3 weeks after sowing, the test plants were treated at the one-leaf stage. The compounds of the invention, formulated in the form of wettable powders (WP) or as emulsion concentrates (EC), were applied onto the green parts of the plants as aqueous suspension or emulsion with addition of 0.5% additive at a water application rate of 600 liters per hectare (converted). After the test plants had been kept in the greenhouse under optimum growth conditions for about 3 weeks, the activity of the preparations was rated visually in comparison to untreated controls. For example, 100% activity=the plants have died, 0% activity=like control plants.
(§3) Tables B1 to B12, below, show the effects of selected compounds of the general formula (I) according to table 1 on various harmful plants and an application rate corresponding to 1280 g/ha obtained by the experimental procedure mentioned above.

[2] = test system: Amaranthus retroflexus (AMARE); test: Herbicidal post-emergence action (B), 1280 g/ha; settings: rated visually after about 3 weeks vs untreated controls
Text: as §1, §2, §3

Setaria viridis (SETVI) [3] = test: Herbicidal pre-emergence action (A), 1280 g/ha; settings: visual grading after ca. 3 weeks vs untreated controls
Text: as §1
(§4) Seeds of mono- and dicotyledonous weed plants were sown in plastic pots (double sowings with one species of mono- and one species of dicotyledonous weed plants per pot), in sandy loam, and covered with soil. The compounds according to the invention, formulated in the form of wettable powders (WP) or as emulsifiable concentrates (EC), were applied to the surface of the covering soil as aqueous suspension or emulsion, with the addition of 0.5% of an additive, at an application rate of 600 l of water per hectare (converted). Following treatment, the pots were placed in a greenhouse and kept under optimum growth conditions for the test plants. The visual grading of the damage to the test plants was carried out after ca. 3 weeks in comparison to untreated controls (herbicidal effect in percent (%): 100% effect=plants have died off, 0% effect=as control plants).
(§5) Tables A1 to A12, below, show the effects of selected compounds of the general formula (I) according to table 1 on various harmful plants and an application rate corresponding to 1280 g/ha obtained by the experimental procedure mentioned above.

[4] = test system: Matricaria inodora (MATIN); test: Herbicidal pre-emergence action (A), 1280 g/ha; settings: visual grading after ca. 3 weeks vs untreated controls
Text: as §1, §4, §5

Stellaria media (STEME) [5] = test: Herbicidal pre-emergence action (A), 1280 g/ha; settings: visual grading after ca. 3 weeks vs untreated controls
Text: as §1, §4, §5

[6] = test system: Echinochloa crus-galli (ECHCG); test: Herbicidal pre-emergence action (A), 1280 g/ha; settings: visual grading after ca. 3 weeks vs untreated controls, 100% = plants have died off, 0% = as control plants
Text: as §1, §4, §5

[7] = test system: Kochia scoparia (KCHSC; Bassia scoparia); test: Herbicidal post-emergence action (B), 1280 g/ha
Text: as §1, §2, §3

[8] = test system: Alopecurus myosuroides (ALOMY); test: Herbicidal post-emergence action (B), 1280 g/ha; settings: rated visually after about 3 weeks vs untreated controls
Text: as §1, §2, §3

[9] = test system: Abutilon theophrasti (ABUTH); test: Herbicidal post-emergence action (B), 1280 g/ha; settings: rated visually after about 3 weeks vs untreated controls
Text: as §1, §2, §3

Poa annua (POAAN) [10] = test: Herbicidal post-emergence action (B), 1280 g/ha; settings: rated visually after about 3 weeks vs untreated controls
Text: as §1, §2, §3

[11] = test system: Echinochloa crus-galli (ECHCG); test: Herbicidal post-emergence action (B), 1280 g/ha; settings: rated visually after about 3 weeks vs untreated controls
Text: as §1, §2, §3

Veronica persica (VERPE) [12] = test: Herbicidal post-emergence action (B), 1280 g/ha
Text: as §1, §2, §3

[13] = test system: Kochia scoparia (KCHSC; Bassia scoparia); test: Herbicidal pre-emergence action (A), 1280 g/ha; settings: visual grading after ca. 3 weeks vs untreated controls
Text: as §1, §4, §5

[14] = test system: Amaranthus retroflexus (AMARE); test: Herbicidal pre-emergence action (A), 1280 g/ha; settings: visual grading after ca. 3 weeks vs untreated controls
Text: as §1, §4, §5

[15] = test system: Alopecurus myosuroides (ALOMY); test: Herbicidal pre-emergence action (A), 1280 g/ha; settings: visual grading after ca. 3 weeks vs untreated controls, 100% = plants have died off, 0% = as control plants
Text: as §1, §4, §5

Poa annua (POAAN) [16] = test: Herbicidal pre-emergence action (A), 1280 g/ha; settings: visual grading after ca. 3 weeks vs untreated controls, 100% = plants have died off, 0% = as control plants
Text: as §1, §4, §5

Veronica persica (VERPE) [17] = test: Herbicidal pre-emergence action (A), 1280 g/ha; settings: visual grading after ca. 3 weeks vs untreated controls
Text: as §1, §4, §5

Lolium rigidum (LOLRI) = test: Herbicidal pre-emergence action (A), 1280 g/ha; settings: visual grading after ca. 3 weeks vs untreated controls, 100% = plants have died off, 0% = as control plants
Text: as §1, §4, §5

[18] = test system: Digitaria sanguinalis (DIGSA); test: Herbicidal post-emergence action (B), 1280 g/ha; settings: rated visually after about 3 weeks vs untreated controls
Text: as §1, §2, §3

Stellaria media (STEME) [19] = test: Herbicidal post-emergence action (B), 1280 g/ha
Text: as §1, §2, §3

[20] = test system: Digitaria sanguinalis (DIGSA); test: Herbicidal pre-emergence action (A), 1280 g/ha; settings: visual grading after ca. 3 weeks vs untreated controls, 100% = plants have died off, 0% = as control plants
Text: as §1, §4, §5

Setaria viridis (SETVI) [21] = test: Herbicidal pre-emergence action (C), 320 g/ha; settings: ca. 3 weeks
Text: as §1
Seeds of mono- and dicotyledonous weed plants and crop plants were sown, in plastic or organic planting pots, in sandy loam and covered with soil. The compounds according to the invention, formulated in the form of wettable powders (WP) or as emulsifiable concentrates (EC), were applied to the surface of the covering soil as aqueous suspension or emulsion, with the addition of 0.5% of an additive, at an application rate of 600 l of water/ha (converted).
Following treatment, the pots were placed in a greenhouse and kept under optimum growth conditions for the test plants. The visual grading of the damage to the test plants was carried out after ca. 3 weeks in comparison to untreated controls (herbicidal effect in percent (%): 100% effect=plants have died off, 0% effect=as control plants).
Tables C1 to C13 below show the effects of selected compounds of the general formula (I) according to table 1 on various harmful plants and an application rate corresponding to 320 g/ha obtained by the experimental procedure mentioned above.

Row | Compound | herbicidal activity SETVI (Setaria viridis (SETVI) [1]) [%] | herbicidal activity AMARE [2] [%] | herbicidal effect SETVI (Setaria viridis (SETVI) [3]) [%] | herbicidal effect MATIN [4] [%] | herbicidal effect STEME (Stellaria media (STEME) [5]) [%] | ECHCG, herbicidal effect in percent (%) [6] [%] | herbicidal effect KCHSC [7] [%] | herbicidal activity ALOMY [8] [%] | herbicidal activity ABUTH [9] [%] | herbicidal activity POAAN (Poa annua (POAAN) [10]) [%] | herbicidal effect VERPE (Veronica persica (VERPE) [12]) [%] | herbicidal effect KCHSC [13] [%] | herbicidal effect AMARE [14] [%] | ALOMY, herbicidal effect in percent (%) [15] [%] | POAAN, herbicidal effect in percent (%) (Poa annua (POAAN) [16]) | herbicidal effect VERPE (Veronica persica (VERPE) [17]) [%] | LOLRI, herbicidal effect in percent (%) (Lolium rigidum (LOLRI)) | herbicidal activity DIGSA [18] [%] | herbicidal effect STEME (Stellaria media (STEME) [19]) [%] | DIGSA, herbicidal effect in percent (%) [20] [%] | further results
1 | Cc1nc2nc(-c3ccccc3F)c(C)cc2s1 [Example I-001] | 90 | 90 | 100 | 90 | 90 | 100 |  |  |  |  |  |  |  |  |  |  |  |  |  |  | 
2 | Fc1cc(F)c(-c2nc3ncsc3cc2Cl)c(F)c1 [Example I-035] | 90 | 100 | 100 | 90 | 90 | 100 | 90 | 90 | 90 | 90 | 90 | 90 | 90 | 90 | 100 | 90 | 100 |  |  |  | herbicidal activity ECHCG [11]: 90%
3 | CCc1cc2scnc2nc1-c1ccccc1C(F)(F)F [Example I-049] |  | 100 | 100 | 90 | 100 | 100 | 100 |  |  | 100 | 90 | 100 | 90 | 100 | 100 | 100 | 100 | 90 | 90 | 90 | 
4 | Fc1ccc(-c2ccc3scnc3n2)cc1 [Example I-074, 5-(4-fluorophenyl)thiazolo[4,5-b]pyridine] |  | 90 | 100 |  |  | 100 | 90 |  |  |  |  |  | 90 |  | 100 |  |  | 100 | 90 | 100 | 
5 | Cc1cccc(F)c1-c1nc2ncsc2cc1Br [Example I-088] | 90 | 100 | 100 | 90 | 90 | 100 | 100 |  | 90 |  | 100 | 90 | 90 | 100 | 100 |  | 100 |  | 100 |  | 
6 | Cc1cc2sc([S+](C)[O-])nc2nc1-c1ccccc1 (centres unmarked) [Example I-092] |  | 100 |  |  | 90 |  | 100 |  | 90 |  | 90 |  | 90 |  | 90 | 90 |  | 100 |  |  | 
7 | CCc1cc2scnc2nc1C1=CCCCC1 [Example I-145] |  | 100 | 100 | 90 | 90 | 100 | 90 | 100 |  |  | 100 | 90 | 100 | 100 | 100 | 100 | 100 | 100 | 100 | 100 | herbicidal effect SETVI (Setaria viridis (SETVI) [21]): 90%; herbicidal activity ECHCG [11]: 100%
8 | CCc1cc2scnc2nc1C12CCCCC1O2 (centres unmarked) [Example I-152] |  | 100 | 100 | 90 | 90 | 100 | 90 | 100 | 90 | 100 | 100 | 100 | 90 |  | 100 | 90 | 100 |  |  | 100 | 
9 | Cc1cc2sc(S)nc2nc1-c1cccc(F)c1 [Example I-159, 5-(3-fluorophenyl)-6-methyl-thiazolo[4,5-b]pyridine-2-thiol] |  |  | 90 |  |  |  | 90 |  | 90 |  |  |  |  |  |  |  |  | 100 |  |  | 
10 | CCc1cc2sc(S)nc2nc1-c1ccccc1F [Example I-165] |  |  | 100 |  | 90 |  | 90 |  |  |  | 90 |  | 90 | 90 | 100 | 90 |  | 100 |  |  | 
